Results: patent publication US20110088107A1, “COMPOSITIONS AND METHODS FOR DERIVING OR CULTURING PLURIPOTENT CELLS” (priority 2009, published 2011)

Key:
naive-hESCs/hiPSCs = test: Signaling dependence of pluripotent cell lines, naive-hESC/hiPSC; type: cell-based, human; conditions: grown in PD/CH/FK/LIF, inhibitor or factor added
Experimental: (§1) Pluripotent cells were equally divided and plated on feeders in the indicated growth medium in which these cell lines are normally maintained, and 36 hours later the wells were supplemented with the indicated inhibitors or growth factors. After seven days, wells were fixed and stained to determine the relative percentage of colonies positive for pluripotency markers. SSEA1 staining was used for mouse stem cells. Colony formation was normalized to an internal control “Growth medium” without inhibitors (first left column). Normalized percentages lower than 5% are defined as “sensitivity” to the presence of the supplemented inhibitor. (B-C) Western blot analysis of total ERK1/2, phosphorylated ERK1/2 (pERK1/2) and phosphorylated Stat3 (pStat3). WIBR3 hESC and C1 hiPSC were grown in traditional bFGF/Activin containing media while naive-hESC/hiPSCs were grown in N2B27 PD/CH/FOR/LIF. ‘2×LIF’ indicates two fold increase in LIF concentration. (D) LIF/Stat3 is required for stabilization of naive-hESC/hiPSCs. Naïve NOD mESCs, WIBR3.5 and WIBR3.1 naive-hESC, and C1 naïve-hiPSCs were electroporated with a pBRY-CAGGS-flox-DsRedT4-IP control plasmid, a plasmid encoding a dominant negative Stat3 Y705F mutant (Stat3-DN), or a plasmid Stat3-C constitutively active mutant (pBRY-Stat3-CA). Cells were passaged three times in the presence of puromycin. After 20 days, colonies positive for pluripotency markers were counted and normalized to colonies from cells electroporated with empty vector (n=3 replicates for each condition). (E) RT-PCR expression of early germ cell markers in the presence or absence of BMP4/7/8 cytokines for 7 days. (F) Representative FISH analysis for XIST RNA (red) and Cot1 nuclear RNA (green). Pri-WIBR3.2 cell line was analyzed after passaging in conventional bFGF/serum-containing human ESC growth conditions. Numbers indicate average percentage of XIST positive nuclei counted.
(§2) Small molecules and cytokines were purchased from Tocris, Calbiochem or Sigma, and were supplemented as indicated at the following final concentration: JAK inhibitor (JAKi, 6 μM), Kenpaullone (KP, 5 μM), PD0325901 (PD, 1 μM); CHIR99021 (CH, […]), Forskolin (FK, 10 μM), FGF4-Receptor inhibitors PD173074 (0.1 μM) and SU5401 (2 μM); TGFβ/ALK inhibitors A83-01 (1 μM), RepSox (1 μM), ALK inhibitor (ALKi—SB431542, 2 μM); AICAR (0.5 mM); BixO1294 (1 μM); BayK8644 (1 μM); recombinant human BMP4 (10 ng/ml), recombinant human IL-6 (10 ng/ml), recombinant human TGFβ (500 ng/ml), Media with inhibitors was routinely replaced every 48 hours to sustain activity of compounds.

hESCs = test: Signaling dependence of pluripotent cell lines, conventional hESCs; type: cell-based, human; conditions: normal growth medium, inhibitor or factor added
Experimental: Pluripotent cells were equally divided and plated on feeders in the indicated growth medium in which these cell lines are normally maintained, and 36 hours later the wells were supplemented with the indicated inhibitors or growth factors. After seven days, wells were fixed and stained to determine the relative percentage of colonies positive for pluripotency markers. SSEA1 staining was used for mouse stem cells. Colony formation was normalized to an internal control “Growth medium” without inhibitors (first left column). […] (B-C) Western blot analysis of total ERK1/2, phosphorylated ERK1/2 (pERK1/2) and phosphorylated Stat3 (pStat3). WIBR3 hESC and C1 hiPSC were grown in traditional bFGF/Activin containing media while naive-hESC/hiPSCs were grown in N2B27 PD/CH/FOR/LIF. ‘2×LIF’ indicates two fold increase in LIF concentration. […] Cells were passaged three times in the presence of puromycin. […] (E) RT-PCR expression of early germ cell markers in the presence or absence of BMP4/7/8 cytokines for 7 days. (F) Representative FISH analysis for XIST RNA (red) and Cot1 nuclear RNA (green). Pri-WIBR3.2 cell line was analyzed after passaging in conventional bFGF/serum-containing human ESC growth conditions.

mEpiSCs = test: Signaling dependence of pluripotent cell lines, mEpiSCs; type: cell-based, mouse; conditions: normal growth medium, inhibitor or factor added
Experimental: as §1, §2

mESCs = test: Signaling dependence of pluripotent cell lines, mESCs; type: cell-based, mouse; conditions: normal growth medium, inhibitor or factor added
Experimental: Pluripotent cells were equally divided and plated on feeders in the indicated growth medium in which these cell lines are normally maintained, and 36 hours later the wells were supplemented with the indicated inhibitors or growth factors. After seven days, wells were fixed and stained to determine the relative percentage of colonies positive for pluripotency markers. SSEA1 staining was used for mouse stem cells. Colony formation was normalized to an internal control “Growth medium” without inhibitors (first left column). Normalized percentages lower than 5% are defined as “sensitivity” to the presence of the supplemented inhibitor. (B-C) Western blot analysis of total ERK1/2, phosphorylated ERK1/2 (pERK1/2) and phosphorylated Stat3 (pStat3). WIBR3 hESC and C1 hiPSC were grown in traditional bFGF/Activin containing media while naive-hESC/hiPSCs were grown in N2B27 PD/CH/FOR/LIF. ‘2×LIF’ indicates two fold increase in LIF concentration. (D) LIF/Stat3 is required for stabilization of naive-hESC/hiPSCs. Naïve NOD mESCs, WIBR3.5 and WIBR3.1 naive-hESC, and C1 naïve-hiPSCs were electroporated with a pBRY-CAGGS-flox-DsRedT4-IP control plasmid, a plasmid encoding a dominant negative Stat3 Y705F mutant (Stat3-DN), or a plasmid Stat3-C constitutively active mutant (pBRY-Stat3-CA). Cells were passaged three times in the presence of puromycin. After 20 days, colonies positive for pluripotency markers were counted and normalized to colonies from cells electroporated with empty vector (n=3 replicates for each condition). (E) RT-PCR expression of early germ cell markers in the presence or absence of BMP4/7/8 cytokines for 7 days. (F) Representative FISH analysis for XIST RNA (red) and Cot1 nuclear RNA (green). Pri-WIBR3.2 cell line was analyzed after passaging in conventional bFGF/serum-containing human ESC growth conditions. Numbers indicate average percentage of XIST positive nuclei counted. […]

NOD-iPS cells = test: Dox-independent propagation of Dox-dependent NOD-iPS cells in supplemented mESM; type: cell-based, mouse (NOD); conditions: mESM lacking Dox
Description: FIGS. 4(A)-4(H) illustrate generation of genetically unmodified germline competent NOD ES cells. (A) Experimental outline for derivation of iPS lines that grow in the presence of small molecules and in the absence of Dox. Representative images of NOD iPS lines growing in mESM supplemented with the indicated small molecules or growth factors. (B) Single-cell cloning efficiency of NOD iPS cells in different growth conditions. WT or NOD-iPS cells grown in mESM and KP were sorted in 96 well plates and cultured in mESM supplemented with small molecules. The number of wells containing Nanog+ colonies was counted after 6 days. Efficiencies were normalized to that of C57B6/129F1-iPS cells (“permissive” controls) plated in mESM and defined as 100%. SD for average efficiencies from 2 experiments are shown. Student test P value compares KP/CH to PD/CH mESM conditions for NOD iPS cells. (C) Expansion of day E3.5 ICM derived NOD ES cells in the presence of KP, KP/CH or PD/CH and derivation of stable ES lines. Images of initial colonies observed at passage 2 after embryo dissociation are shown together with representative images at later passages. (D) Karyotype of NOD ES lines. (E) Immunostaining of NOD ES lines for pluripotency markers. Inhibitors used during cell line derivation and propagation are indicated. (F) Chimerism in adult mice generated from the indicated cell lines is evident by the presence of agouti (brown) and albino coat color originating from the NOD background. […] (G) Real-Time PCR analysis for endogenous expressed Oct4, c-Myc and Klf4 genes in NOD iPS and ES cells grown in the indicated conditions. Relative expression levels are normalized to levels detected in control 129 ES cells. (H) Southern analysis indicating correct targeting of the endogenous Nanog locus in NOD ES cells with Nanog-GFP knock-in targeting construct.
Small molecules have been identified to replace some of the reprogramming factors in iPS derivation (Huangfu et al., 2008; Shi et al., 2008). […]

C1.2 hiPSCs = test: Screen for factors stabilizing C1 hiPSCs upon DOX withdrawal; type: cell-based, human; conditions: C1.2 hiPSCs without DOX
Experimental: FIGS. 9(A)-9(D) show the in vitro stabilization of naïve human pluripotent stem cells. […] C1 cells were plated on feeders in N2B27 media with the indicated factors. p-values using student's t-test indicates significant change in comparison to cells grown in DOX/PD/CH/LIF conditions, which were defined as a control (100% survival). (B) Scheme for reverting hESCs to generate “naive-hESCs”. (C) Representative images of WIBR3 hESCs at different stages of the reversion process in PD/CH/LIF/FK (P indicates passage number). (D) Representative images of naive-WIBR3.5 hESC line, derived by plating WIBR3 hESCs in PD/CH/FK/LIF medium without transfection of exogenous factors. Magnifications of captured images are indicated. Naïve human pluripotent cells were grown in serum-free N2B27 based media. […] Throughout the manuscript, indicated passage numbers of naïve-hiPSC/hESCs indicates number of passages counted after induction of the naïve state. […]

Compound | effect on pluripotency of naive-hESCs/hiPSCs (naive-hESCs/hiPSCs) | effect on pluripotency of conventional hESCs (hESCs) | effect on pluripotency of mEpiSCs (mEpiSCs) | effect on pluripotency of mESCs (mESCs) | Dox-independent growth of pluripotent NOD-iPS cells (NOD-iPS cells) | role in the 13i+LIF cocktail on removing one inhibitor at a time (C1.2 hiPSCs)
Cc1cccc(-c2nn(C(=S)Nc3ccccc3)cc2-c2ccnc3ccccc23)n1 [A83-01] | maintained their pluripotent state | rapidly differentiated | rapidly differentiated | maintained their pluripotent state |  | 
Cc1c[nH]c(-c2cnc(NCCNc3ccc(C#N)cn3)nc2-c2ccc(Cl)cc2Cl)n1 [CHIR99021] |  |  |  |  | supported Dox-independent growth | crucial components
CCN(CC)CCCCNc1ncc2cc(-c3cc(OC)cc(OC)c3)c(NC(=O)NC(C)(C)C)nc2n1 [PD173074] | but not of naive-hESCs/hiPSCs or mESCs | resulted in the differentiation | resulted in the differentiation |  |  | 
O=C(NOC[C@H](O)CO)c1ccc(F)c(F)c1Nc1ccc(I)cc1F [PD] |  | could not be propagated |  |  |  | crucial components
TGFβ | differentiated |  |  | differentiated |  | 
Wnt3a |  |  |  |  | supported Dox-independent growth | 
